The values that follow come from patent publication US20140343017A1, “PYRROLE COMPOUND” (Kabushiki Kaisha Yakult Honsha, priority 2012, published 2014).

As usually defined, the IC50 is the point on the concentration scale where inhibition reaches its midpoint.

The structures appear in SMILES notation.

Holding throughout (assay): Inhibitory effect on growth of human cancer cells (in vitro), WST-8
Format in all cases: cell-based
Background: Formazan colour is commonly taken as a measure of viable cells.

For test [1], the system named is human colorectal cancer HT-29 cells. To be noted: Homo sapiens, HT-29, 96 h, 96 hours culture, read-out: IC50 (nM) HT29. The procedure: (§1) Each pyrrole compound of the present invention was studied for its effects on the growth of human non-small cell lung cancer A549 cells and human colorectal cancer HT-29 cells and HCT116 cells. The cells of each line were suspended in an RPMI1640 medium supplemented with 10% fetal bovine serum and inoculated at a cell density of 1000 cells/50 μL/well to a 96-well plate. After overnight culture, each compound diluted with a medium was added thereto at a concentration of 50 μL/well, and the cells were further cultured for 96 hours. After the completion of culture, WST-8 (Seikagaku Corp.) was added thereto at a concentration of 10 μL/well, and the cells were cultured at 37° C. for approximately 1 hour under 5% CO2 conditions, followed by measurement of absorbance at 450 nm.

For test [2], the system named is human colorectal cancer HCT116 cells. To be noted: Homo sapiens, HCT-116, 96 h, 96 hours culture. As to the method:
as §1

Test [3] concerns human non-small cell lung cancer A549 cells. To be noted: Homo sapiens, A549, 96 h, 96 hours culture. As to the method: as §1

As to `CCc1nnc(-c2c(C)c(C(=O)c3cccc(Br)c3)c(C)n2C)o1` [Compound 223, (3-bromophenyl) (5-(5-ethyl-1,3,4-oxadiazol-2-yl)-1,2,4-trimethyl-1H-pyrrol-3-yl)methanone], the IC50 came out at 28.1 nM in test [1], 46.9 nM in test [2] and 231 nM in test [3].

Turning to `CCc1nnc(-c2c(C)c(C(=O)c3cccc(Br)c3)c(C)n2C(C)=O)o1` [Compound 224, 1-(3-(3-bromobenzoyl)-5-(5-ethyl-1,3,4-oxadiazol-2-yl)-2,4-dimethyl-1H-pyrrol-1-yl)ethanone], the values for the IC50 in test [1], in test [2] and in test [3] were 1.3 nM, 1.7 nM and 1.8 nM, respectively.

For `CCc1nnc(-c2c(C)c(C(=O)c3cccc(Br)c3)c(C)n2S(C)(=O)=O)o1` [Compound 225, (3-bromophenyl)(5-(5-ethyl-1,3,4-oxadiazol-2-yl)-2,4-dimethyl-1-(methylsulfonyl)-1H-pyrrol-3-yl)methanone], the figures for the IC50 in test [1], in test [2] and in test [3] were 6.6 nM, 9.2 nM and 9.7 nM, respectively.

Take `CCc1nnc(-c2c(C)c(C(=O)c3cccc(Br)c3)c(C)n2C(=O)COC(C)=O)o1` [Compound 226, 2-(3-(3-bromobenzoyl)-5-(5-ethyl-1,3,4-oxadiazol-2-yl)-2,4-dimethyl-1H-pyrrol-1-yl)-2-oxoethyl acetate]: the IC50 was found to be 0.3 nM in test [1], 0.4 nM in test [2] and 0.7 nM in test [3].

Turning to `CCc1nnc(-c2c(C)c(C(=O)c3cccc(Br)c3)c(C)n2S(=O)(=O)C2CC2)o1` [Compound 227, (3-bromophenyl) (1-(cyclopropylsulfonyl)-5-(5-ethyl-1,3,4-oxadiazol-2-yl)-2,4-dimethyl-1H-pyrrol-3-yl)methanone], the figures for the IC50 in test [1], in test [2] and in test [3] were 290 nM, 447 nM and 555 nM, respectively.

Take `CCc1nnc(-c2c(C)c(C(=O)c3cccc(Br)c3)c(C)n2CCOC(C)=O)o1` [Compound 235, 2-(3-(3-bromobenzoyl)-2,4-dimethyl-5-(5-ethyl-1,3,4-oxadiazol-2-yl)-1H-pyrrol-1-yl)ethyl acetate]: the IC50 in test [1] is 172 nM; in test [2] it was 239 nM; in test [3], 738 nM.

In the case of `CCc1nnc(-c2c(C)c(C(=O)c3cccc(Br)c3)c(C)n2CCO)o1` [Compound 236, (3-bromophenyl) (1-(2-hydroxyethyl)-2,4-dimethyl-5-(5-ethyl-1,3,4-oxadiazol-2-yl)-1H-pyrrol-3-yl)methanone], the IC50 in test [1] was determined as 168 nM; in test [2] it was 231 nM; in test [3] it was 469 nM.

In the case of `CCc1nnc(-c2c(C)c(C(=O)c3cccc(Br)c3)c(C)n2C(=O)c2ccccc2)o1` [Compound 237, (1-benzoyl-5-(5-ethyl-1,3,4-oxadiazol-2-yl)-2,4-dimethyl-1H-pyrrol-3-yl) (3-bromophenyl)methanone], the IC50 in test [1] was 0.3 nM; in test [2] it was 0.6 nM; in test [3], 1.9 nM.

Regarding `Cc1[nH]c(-c2nnc(C3CC3)o2)c(C)c1C(=O)c1cc(Br)ccc1O` [Compound 241, (5-bromo-2-hydroxyphenyl)(5-(5-cyclopropyl-1,3,4-oxadiazol-2-yl)-2,4-dimethyl-1H-pyrrol-3-yl)methanone], the IC50 is 2.6 nM in test [1], 1.4 nM in test [2] and 2.1 nM in test [3].

With `CCc1nnc(-c2[nH]c(C)c(C(=O)c3ccc(OCCN)c(Br)c3)c2C)o1` [Compound 251, (4-(2-aminoethoxy)-3-bromophenyl)(5-(5-ethyl-1,3,4-oxadiazol-2-yl)-2,4-dimethyl-1H-pyrrol-3-yl)methanone], the IC50 in test [1] is 102 nM; in test [2] it was 55.3 nM; in test [3] it was 191 nM.

Regarding `Cc1[nH]c(-c2nnc(C3CC3)o2)c(C)c1C(=O)c1cccc(OCCN)c1` [Compound 253, (3-(2-aminoethoxy)phenyl)(5-(5-cyclopropyl-1,3,4-oxadiazol-2-yl)-2,4-dimethyl-1H-pyrrol-3-yl)methanone], the IC50 came out at 146 nM in test [1], 45.2 nM in test [2] and 351 nM in test [3].

Regarding `Cc1[nH]c(-c2nnc(C3CC3)o2)c(C)c1C(=O)c1ccc(O)c(Br)c1` [Compound 254, (3-bromo-4-hydroxyphenyl)(5-(5-cyclopropyl-1,3,4-oxadiazol-2-yl)-2,4-dimethyl-1H-pyrrol-3-yl)methanone], the results for the IC50 in test [1], in test [2] and in test [3] were 33.2 nM, 44.5 nM and 55.1 nM, respectively.

Consider `Cc1[nH]c(-c2nnc(C3CC3)o2)c(C)c1C(=O)c1ccc(OCCN)c(Br)c1` [Compound 256, (4-(2-aminoethoxy)-3-bromophenyl)(5-(5-cyclopropyl-1,3,4-oxadiazol-2-yl)-2,4-dimethyl-1H-pyrrol-3-yl)methanone], for which the IC50 in test [1] is 36.2 nM; in test [2] it was 43.2 nM; in test [3] it was 95.9 nM.

`Cc1[nH]c(-c2nnc(C3CC3)o2)c(C)c1C(=O)c1ccc(OCCN(C)C)c(Br)c1` [Compound 257, (3-bromo-4-(2-(dimethylamino)ethoxy)phenyl) (5-(5-cyclopropyl-1,3,4-oxadiazol-2-yl)-2,4-dimethyl-1H-pyrrol-3-yl)methanone]: the results for the IC50 in test [1], in test [2] and in test [3] were 384 nM, 865 nM and 865 nM, respectively.

As to `COc1ccc(Br)cc1C(=O)c1c(C=O)[nH]c(-c2nnc(C3CC3)o2)c1C` [Compound 258, 3-(5-bromo-2-methoxybenzoyl)-5-(5-cyclopropyl-1,3,4-oxadiazol-2-yl)-4-methyl-1H-pyrrole-2-carboaldehyde], the IC50 is 30.9 nM in test [1], 45.4 nM in test [2] and 50.5 nM in test [3].

Consider `COc1ccc(Br)cc1C(=O)c1c(CO)[nH]c(-c2nnc(C3CC3)o2)c1C` [Compound 259, (5-bromo-2-methoxyphenyl)(5-(5-cyclopropyl-1,3,4-oxadiazol-2-yl)-2-(hydroxymethyl)-4-methyl-1H-pyrrol-3-yl)methanone], for which the results for the 50% inhibitory concentration (IC50) in test [1], in test [2] and in test [3] were 37.2 nM, 39.2 nM and 69.5 nM, respectively.

As for `C=Cc1[nH]c(-c2nnc(C3CC3)o2)c(C)c1C(=O)c1cccc(Br)c1` [Compound 260, (3-bromophenyl) (5-(5-cyclopropyl-1,3,4-oxadiazol-2-yl)-4-methyl-2-vinyl-1H-pyrrol-3-yl)methanone], the IC50 in test [1] amounted to 0.3 nM; in test [2], 0.3 nM; in test [3] it was 0.4 nM.

`Cc1c(-c2nnc(C3CC3)o2)[nH]c(C=O)c1C(=O)c1cccc(Br)c1` [Compound 261, 3-(3-bromobenzoyl)-5-(5-cyclopropyl-1,3,4-oxadiazol-2-yl)-4-methyl-1H-pyrrole-2-carboaldehyde]: the IC50 in test [1] worked out at 9.4 nM; in test [2] it was 88.9 nM; in test [3] it was 12.9 nM.

In the case of `COc1ccc(C(=O)c2c(C3SCCCS3)[nH]c(-c3nnc(C4CC4)o3)c2C)cc1Br` [Compound 262, (3-bromo-4-methoxyphenyl)(5-(5-cyclopropyl-1,3,4-oxadiazol-2-yl)-2-(1,3-dithian-2-yl)-4-methyl-1H-pyrrol-3-yl)methanone], the results for the IC50 in test [1], in test [2] and in test [3] were 845 nM, 902 nM and 905 nM, respectively.

Take `Cc1c(-c2nnc(C3CC3)o2)[nH]c(CO)c1C(=O)c1cccc(Br)c1` [Compound 264, (3-bromophenyl)(5-(5-cyclopropyl-1,3,4-oxadiazol-2-yl)-2-(hydroxymethyl)-4-methyl-1H-pyrrol-3-yl)methanone]: the IC50 in test [1] worked out at 1.8 nM; in test [2] it was 1.8 nM; in test [3], 8.2 nM.

Turning to `Cc1c(-c2nnc(C3CC3)o2)[nH]c(C(F)F)c1C(=O)c1cccc(Br)c1` [Compound 265, (3-bromophenyl)(5-(5-cyclopropyl-1,3,4-oxadiazol-2-yl)-2-(difluoromethyl)-4-methyl-1H-pyrrol-3-yl)methanone], the IC50 in test [1] is 37.1 nM; in test [2] it was 158 nM; in test [3], 46 nM.

Take `COc1ccc(C(=O)c2c(CN3CCCCC3)[nH]c(-c3nnc(C4CC4)o3)c2C)cc1Br` [Compound 270, (3-bromo-4-methoxyphenyl)(5-(5-cyclopropyl-1,3,4-oxadiazol-2-yl)-4-methyl-2-(piperidin-1-ylmethyl)-1H-pyrrol-3-yl)methanone]: the IC50 is 725 nM in test [1], 819 nM in test [2] and 859 nM in test [3].

As to `Cc1noc(-c2[nH]c(C)c(C(=O)c3cccc(Br)c3)c2C)n1` [Compound 271, (3-bromophenyl) (2,4-dimethyl-5-(3-methyl-1,2,4-oxadiazol-5-yl)-1H-pyrrol-3-yl)methanone], the IC50 in test [1] was 44.1 nM; in test [2] it was 50.4 nM; in test [3] it was 92.9 nM.

For `CCc1cnc(-c2[nH]c(C)c(C(=O)c3cccc(Br)c3)c2C)o1` [Compound 272, (3-bromophenyl) (5-(5-ethyloxazol-2-yl)-2,4-dimethyl-1H-pyrrol-3-yl)methanone], the values for the IC50 in test [1], in test [2] and in test [3] were 42 nM, 48.4 nM and 66.6 nM, respectively.

In the case of `Cc1c(-c2nnn(CCN)n2)[nH]c(CO)c1C(=O)c1cccc(Br)c1` [Compound 280, (5-(2-(2-aminoethyl)-2H-tetrazol-5-yl)-2-(hydroxymethyl)-4-methyl-1H-pyrrol-3-yl) (3-bromophenyl)methanone], the IC50 in test [1] was determined as 194 nM; in test [2], 250 nM; in test [3], 250 nM.
